Some test systems named below: COLO 205; HCT-116; SF-539; IGROV-1; HOP-92; UO-31; A498; OVCAR-5; MCF7; ACHN; Hs-578T; MDA-MB-435; HCT-15; Malme-3M; MDA-N; PC-3; TK-10; MOLT-4; SK-MEL-28; HL-60.
Holding throughout (assay): growth of human tumour cells (NCI), 48 h

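Growth conditions: 96-well plates. Treatment: test compound, 48 hours, 5 concentrations. Analysis: linear interpolation between bracketing concentrations; unreached endpoints set to highest concentration. GI50 is the concentration that inhibits growth by half.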 Activity calls are given as the source filed them. Rule as the data show it: active = GI50 up to about 1.1 µM and inactive = higher.

Turning to `O=C1C2CCCCC2C(=O)N1n1c(-c2ccccc2)n[nH]c1=O` (centres undefined), the GI50 in the experiment on COLO 205, with HCT-116, with SF-539, with IGROV-1, in the experiment with HOP-92 and in the experiment with UO-31 was > 100 µM (inactive) each time. The GI50 with A498, in the experiment on OVCAR-5, in the experiment on MCF7, in the experiment with ACHN, with Hs-578T and in the experiment on MDA-MB-435 was > 100 µM (inactive) each time. Moreover, the GI50 with HCT-15 was over 100 µM; in the experiment with Malme-3M it was > 100 µM (inactive); in the experiment on MDA-N, > 100 µM (inactive); in the experiment with PC-3 it was > 100 µM (inactive); in the experiment with TK-10, > 100 µM (inactive); in the experiment with MOLT-4, > 100 µM (inactive).

Regarding `COc1ccc2c(c1)-c1nc(=S)n(CCN(C)C)c3ccc([N+](=O)[O-])c(c13)N2`, the GI50 in the experiment with SK-MEL-28 was 1.44 µM (inactive); in the experiment on COLO 205, 0.865 µM (active); in the experiment with HCT-116, 0.247 µM (active); in the experiment with SF-539, 0.824 µM (active); in the experiment on IGROV-1 it was 0.832 µM (active); in the experiment on HOP-92, 6.61 µM (inactive). The GI50 with UO-31 was 0.794 µM (active); in the experiment on A498, 8.13 µM (inactive); with OVCAR-5 it was 3.13 µM (inactive); in the experiment with MCF7, 0.861 µM (active); in the experiment with ACHN, 0.345 µM (active); with Hs-578T, 1.37 µM (inactive). The GI50 in the experiment with MDA-MB-435 is 2.1 µM (inactive); with HCT-15, 0.731 µM; in the experiment with Malme-3M, 0.693 µM (active); in the experiment on MDA-N, 0.948 µM (active); in the experiment with PC-3, 1.06 µM (active); with TK-10, 1.07 µM (active). For the same molecule, the GI50 in the experiment on MOLT-4 is 0.15 µM (active).

For `OC1NC2CC3NC(O)C(O)NC3CC2NC1O` (centres undefined), the GI50 with SK-MEL-28, in the experiment on COLO 205, in the experiment on HCT-116, in the experiment with SF-539, in the experiment with IGROV-1 and with HOP-92 was > 100 µM (inactive) throughout. For the same molecule, the GI50 with UO-31, with OVCAR-5, in the experiment with MCF7, in the experiment on HL-60, in the experiment with ACHN and in the experiment on Hs-578T was > 100 µM (inactive) each time. Besides, the GI50 in the experiment with MDA-MB-435 is > 100 µM (inactive); in the experiment with HCT-15 it was over 100 µM; in the experiment with Malme-3M, > 100 µM (inactive); in the experiment with MDA-N, > 100 µM (inactive); in the experiment on PC-3, > 100 µM (inactive); in the experiment on TK-10, > 100 µM (inactive). Further, the GI50 with MOLT-4 was > 100 µM (inactive).

On to `Cc1nc2c(=O)n(C)ncc2[nH]1`, for which the GI50 in the experiment on SK-MEL-28, in the experiment on COLO 205, in the experiment with HCT-116, in the experiment on SF-539, in the experiment with IGROV-1 and in the experiment on UO-31 was > 100 µM (inactive) throughout. For the same molecule, the GI50 in the experiment with A498 was > 100 µM (inactive); in the experiment with OVCAR-5, > 100 µM (inactive); in the experiment with MCF7, > 100 µM (inactive); in the experiment with HL-60, 33.4 µM (inactive); with ACHN, > 100 µM (inactive); with Hs-578T, 77.1 µM (inactive). Also, the GI50 in the experiment on MDA-MB-435 was > 100 µM (inactive); in the experiment with HCT-15, over 100 µM; in the experiment with MDA-N, > 100 µM (inactive); in the experiment on PC-3 it was > 100 µM (inactive); in the experiment with TK-10, > 100 µM (inactive); in the experiment with MOLT-4, > 100 µM (inactive).

Take `CC(=O)O[C@H]1CC[C@@]2(C)[C@@H](CC[C@@H]3[C@@H]2CC(=O)[C@@]2(C)[C@H]3C[C@@H]3CC(C)=CC(=O)[C@@H]32)C1`: the GI50 with SK-MEL-28 was > 100 µM (inactive); in the experiment on COLO 205, 58.5 µM (inactive); in the experiment with HCT-116, 49.5 µM (inactive); with IGROV-1, > 100 µM (inactive); in the experiment with UO-31, 23.2 µM (inactive); with A498, > 100 µM (inactive). Moreover, the GI50 with OVCAR-5 was > 100 µM (inactive); in the experiment with MCF7, 58.3 µM (inactive); in the experiment on HL-60, 5.04 µM (inactive); in the experiment on ACHN, 66.7 µM (inactive); in the experiment on Hs-578T it was 20.7 µM (inactive); with MDA-MB-435, 58.6 µM (inactive). Besides, the GI50 in the experiment with HCT-15 is 98.2 µM; in the experiment on Malme-3M, 40.6 µM (inactive); in the experiment with MDA-N it was 43.1 µM (inactive); in the experiment with PC-3, 44.1 µM (inactive); in the experiment on TK-10, > 100 µM (inactive).

Take `c1ccc(NN=C(c2ccccn2)c2ccccn2)nc1`: the GI50 in the experiment with SK-MEL-28 was 0.869 µM (active); with COLO 205, < 0.01 µM (active); in the experiment on HCT-116, 0.0785 µM (active); in the experiment with SF-539, 1.71 µM (inactive); in the experiment with IGROV-1, 0.0153 µM (active); in the experiment with HOP-92, 0.488 µM (active). Besides, the GI50 was 0.0267 µM (active) with UO-31; 0.447 µM (active) in the experiment with A498; 0.794 µM (active) with OVCAR-5; < 0.0245 µM (active) in the experiment with MCF7; 0.159 µM (active) in the experiment on ACHN; 4.82 µM (inactive) in the experiment on Hs-578T. The GI50 was 0.817 µM (active) in the experiment with MDA-MB-435; 0.0893 µM in the experiment on HCT-15; 0.0653 µM (active) in the experiment on Malme-3M; 0.533 µM (active) with MDA-N; 0.191 µM (active) in the experiment with PC-3; 0.357 µM (active) with TK-10.

With `O=C1C(Cl)=C(NCCN2CCOCC2)C(=O)c2c(O)ccc(O)c21`, the GI50 in the experiment on SK-MEL-28 is 1.48 µM (inactive); in the experiment on COLO 205, 1.5 µM (inactive); with HCT-116, 1.55 µM (inactive); in the experiment on SF-539 it was 1.75 µM (inactive); in the experiment with IGROV-1, 1.88 µM (inactive); in the experiment on HOP-92, 2.69 µM (inactive). Further, the GI50 in the experiment with UO-31 was 2.36 µM (inactive); in the experiment with A498, 6.62 µM (inactive); in the experiment with OVCAR-5, 1 µM (active); in the experiment with MCF7 it was 1.42 µM (inactive); with ACHN, 2.7 µM (inactive); in the experiment with Hs-578T, 3.13 µM (inactive). Also, the GI50 in the experiment on MDA-MB-435 is 1.64 µM (inactive); with HCT-15 it was 1.72 µM; in the experiment on Malme-3M, 1.84 µM (inactive); with MDA-N, 1.9 µM (inactive); in the experiment with PC-3, 2.2 µM (inactive); in the experiment with TK-10 it was 8.85 µM (inactive). Besides, in the experiment with MOLT-4, the GI50 was 1.54 µM (inactive).

Turning to `O=CNc1ccc2c(c1)C(=O)c1ccccc1-2`, the GI50 with SK-MEL-28 is > 100 µM (inactive); in the experiment with COLO 205, 67.5 µM (inactive); in the experiment with HCT-116 it was 37.8 µM (inactive); with SF-539, 75.5 µM (inactive); in the experiment on IGROV-1, 44.1 µM (inactive); in the experiment on HOP-92, 72.8 µM (inactive). In addition, the GI50 with UO-31 is 47.3 µM (inactive); in the experiment on A498, 90.2 µM (inactive); in the experiment on OVCAR-5, > 100 µM (inactive); with MCF7, 20.8 µM (inactive); in the experiment on HL-60 it was 49.1 µM (inactive); in the experiment with ACHN, > 100 µM (inactive). The GI50 with Hs-578T was 24.1 µM (inactive); in the experiment on MDA-MB-435, > 100 µM (inactive); in the experiment on HCT-15, 59.7 µM; with MDA-N, > 100 µM (inactive); in the experiment with PC-3, 68.2 µM (inactive); in the experiment with TK-10, > 100 µM (inactive). Further, the GI50 in the experiment with MOLT-4 is 44.7 µM (inactive).

As for `C[N+]1(CCCl)CC[N+](C)(CCCl)CC1` (centres undefined), the GI50 is > 100 µM (inactive) in the experiment on SK-MEL-28; > 100 µM (inactive) in the experiment on COLO 205; > 100 µM (inactive) with HCT-116; > 100 µM (inactive) in the experiment with SF-539; > 100 µM (inactive) in the experiment with IGROV-1; 99.5 µM (inactive) with UO-31. In addition, the GI50 in the experiment on A498 was > 100 µM (inactive); with OVCAR-5 it was > 100 µM (inactive); with MCF7, > 100 µM (inactive); in the experiment on HL-60 it was 28.8 µM (inactive); in the experiment with ACHN, > 100 µM (inactive); with Hs-578T, > 100 µM (inactive). Besides, the GI50 is > 100 µM (inactive) with MDA-MB-435; over 100 µM with HCT-15; > 100 µM (inactive) with Malme-3M; > 100 µM (inactive) in the experiment with MDA-N; > 100 µM (inactive) with PC-3; > 100 µM (inactive) with TK-10. For the same molecule, the GI50 with MOLT-4 was 83.6 µM (inactive).

Turning to `Cc1c2c(C#N)nccc2c(C)c2c1c1ccccc1n2Cc1ccccc1`, the GI50 in the experiment with SK-MEL-28 was > 100 µM (inactive); in the experiment on COLO 205, > 100 µM (inactive); in the experiment on HCT-116, > 100 µM (inactive); in the experiment with SF-539 it was > 100 µM (inactive); in the experiment with IGROV-1, > 100 µM (inactive); in the experiment on HOP-92 it was 77.8 µM (inactive). Also, the GI50 was > 100 µM (inactive) in the experiment with UO-31; > 100 µM (inactive) with OVCAR-5; 6.49 µM (inactive) in the experiment with MCF7; > 100 µM (inactive) with HL-60; > 100 µM (inactive) in the experiment on ACHN; 88.5 µM (inactive) in the experiment with Hs-578T. The GI50 in the experiment with MDA-MB-435 is > 100 µM (inactive); in the experiment on HCT-15, over 100 µM; with Malme-3M, > 100 µM (inactive); in the experiment on MDA-N it was > 100 µM (inactive); with PC-3, > 100 µM (inactive); in the experiment with TK-10 it was > 100 µM (inactive). Further, in the experiment on MOLT-4, the GI50 was > 10 µM (inactive).

`CCOc1ccncc1[N+](=O)[O-]`: the GI50 in the experiment with SK-MEL-28 was > 100 µM (inactive); in the experiment with COLO 205, > 10 µM (inactive); in the experiment on HCT-116 it was > 100 µM (inactive); with SF-539, > 100 µM (inactive); with IGROV-1, > 100 µM (inactive); in the experiment with UO-31, > 100 µM (inactive). In addition, the GI50 in the experiment with A498, in the experiment with OVCAR-5, in the experiment on MCF7, with HL-60, with ACHN and with Hs-578T was > 100 µM (inactive) each time. The GI50 with MDA-MB-435 is > 100 µM (inactive); with HCT-15 it was over 100 µM; in the experiment with Malme-3M it was > 100 µM (inactive); in the experiment with MDA-N it was > 100 µM (inactive); in the experiment on PC-3, > 100 µM (inactive); in the experiment with TK-10, > 100 µM (inactive). In addition, the GI50 in the experiment on MOLT-4 was > 100 µM (inactive).

Values taken from ChEMBL document CHEMBL1201862, “PubChem BioAssay data set” (2004).
